Values of other authors as cited in patent publication US20250381145A1, “COMBINATION OF SGLT2 INHIBITORS AND MINERALCORTICOID RECEPTOR MODULATORS FOR USE IN TREATMENT OF CARDIORENAL DISEASES” (ASTRAZENECA AB, priority 2022, published 2025).

Structure (SMILES) | solubility (BCS characterisation)
CNC(=O)C[C@H]1COc2cc(F)ccc2N1C(=O)c1ccc2c(c1)NC(=O)CO2 [AZD9977, balcinrenone] | low
CCOc1ccc(Cc2cc([C@@H]3O[C@H](CO)[C@@H](O)[C@H](O)[C@H]3O)ccc2Cl)cc1 [dapagliflozin] | high
